Here are results for 13 molecules from PubChem BioAssay AID342 (DTP/NCI, 2004).

SMILES strings stand for the structures. Square brackets hold non-standard residues; d marks the D form. Peptide text beside a SMILES is read from it. ξ: configuration not given here. Ac5c = NC1(C(=O)O)CCCC1; ξS = NC(CO)C(=O)O

In this assay the test system is Swiss mice, Sarcoma 180 sc, mean tumor weight T/C. Kind of assay: NCI In Vivo Anticancer Drug Screen. Data for tumor model Sarcoma 180 (subcutaneous) in Swiss mice. Particulars: endpoint: mean tumor weight, higher = larger tumour. In short, it runs like this: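 Transplantable tumors were established in mice, compound was given, then survival or tumor size was recorded. The treated value was divided by the vehicle-control value.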

Setting [1] is: dose: 20.0 mg/kg/injection, schedule: Q01DX007 (ip), vehicle: carboxymethylcellulose (CMC).

Turning to `CCOC(=O)Nc1ccc2c(c1)/C(=N\NC(N)=S)c1ccccc1-2`, the T/C (in general, the ratio of treated to control) (dose: 5.0 mg/kg/injection, schedule: Q01DX007 (ip), vehicle: carboxymethylcellulose (CMC)) was 86 % of control; the T/C (dose: 15.0 mg/kg/injection, schedule: Q01DX007 (ip), vehicle: carboxymethylcellulose (CMC)) was 44 % of control; the T/C (dose: 30.0 mg/kg/injection, schedule: Q01DX007 (ip), vehicle: carboxymethylcellulose (CMC)) was 55 % of control; the T/C (dose: 49.0 mg/kg/injection, schedule: Q01DX007 (ip), vehicle: carboxymethylcellulose (CMC)) is 85 % of control; the T/C (dose: 60.0 mg/kg/injection, schedule: Q01DX007 (ip), vehicle: carboxymethylcellulose (CMC)) was 63 % of control; the T/C (dose: 73.0 mg/kg/injection, schedule: Q01DX007 (ip), vehicle: carboxymethylcellulose (CMC)) was 63 % of control. For the same molecule, the T/C (dose: 110.0 mg/kg/injection, schedule: Q01DX007 (ip), vehicle: carboxymethylcellulose (CMC)) is 112 % of control.
Consider `CC1OC(OC2C(CO)OC(O[C@H]3CC[C@@]4(C)C(=CC[C@H]5[C@@H]6C[C@@H]7O[C@@]8(CC[C@H](C)CN8)[C@@H](C)[C@@H]7[C@@]6(C)CC[C@@H]54)C3)C(OC3OC(C)C(O)C(O)C3O)C2O)C(O)C(O)C1O` (stereo not given in full), for which the T/C is, setting by setting: (dose: 5.0 mg/kg/injection, schedule: Q01DX007 (ip), vehicle: saline) 51 % of control; (dose: 15.0 mg/kg/injection, schedule: Q01DX007 (ip), vehicle: saline) 62 % of control; (dose: 20.0 mg/kg/injection, schedule: Q01DX007 (ip), vehicle: saline) 15 % of control; (dose: 30.0 mg/kg/injection, schedule: Q01DX007 (ip), vehicle: saline) 21 % of control; (dose: 40.0 mg/kg/injection, schedule: Q01DX007 (ip), vehicle: saline) 16 % of control.
`Cc1cc(N(CCCl)CCCl)ccc1C=Nc1ccccc1-c1ccccc1`: the T/C (dose: 25.0 mg/kg/injection, schedule: Q01DX007 (ip), vehicle: saline) is 100 % of control; the T/C (dose: 50.0 mg/kg/injection, schedule: Q01DX007 (ip), vehicle: saline) was 96 % of control; the T/C (dose: 100.0 mg/kg/injection, schedule: Q01DX007 (ip), vehicle: saline) is 105 % of control; the T/C (dose: 200.0 mg/kg/injection, schedule: Q01DX007 (ip), vehicle: saline) was 73 % of control.
`CCCCCCCCCCC(O)CN1CCN(c2ccc(C)cc2)CC1` (stereo not given): the T/C is 63 % of control (dose: 110.0 mg/kg/injection, schedule: Q01DX007 (ip), vehicle: olive oil, sesame oil, peanut oil); 51 % of control (dose: 168.0 mg/kg/injection, schedule: Q01DX007 (ip), vehicle: olive oil, sesame oil, peanut oil); 77 % of control (dose: 250.0 mg/kg/injection, schedule: Q01DX007 (ip), vehicle: olive oil, sesame oil, peanut oil).
Regarding `S=P(N1CCCCC1)(N1CC1)N1CC1`, the T/C was 26 % of control (dose: 55.0 mg/kg/injection, schedule: Q01DX007 (ip), vehicle: saline); 26 % of control (dose: 84.0 mg/kg/injection, schedule: Q01DX007 (ip), vehicle: saline); 14 % of control (dose: 125.0 mg/kg/injection, schedule: Q01DX007 (ip), vehicle: saline); 8 % of control (dose: 188.0 mg/kg/injection, schedule: Q01DX007 (ip), vehicle: saline).
Take `Cc1nnc2ncnc(N)c2n1`: the T/C is 106 % of control (dose: 50.0 mg/kg/injection, schedule: Q01DX007 (ip), vehicle: carboxymethylcellulose (CMC)) and 105 % of control (dose: 75.0 mg/kg/injection, schedule: Q01DX007 (ip), vehicle: carboxymethylcellulose (CMC)).
Turning to `CN(N=O)C(=O)Nc1c[nH]c(=O)[nH]c1=O`, under “dose: 25.0 mg/kg/injection, schedule: Q#A X014 (ip), vehicle: carboxymethylcellulose (CMC)”, the T/C is 33 % of control.
On to `CO[C@H]1CC[C@@]2(C)C(=CC[C@@H]3[C@@H]2CC[C@]2(C)C(=O)C(=O)C[C@@H]32)C1`, for which the T/C is 154 % of control (dose: 22.0 mg/kg/injection, schedule: Q01DX007 (sc), vehicle: steriod suspending solution) and 74 % of control (dose: 33.0 mg/kg/injection, schedule: Q01DX007 (sc), vehicle: steriod suspending solution).
Regarding `c1ccc(CNc2ncnc3[nH]ncc23)cc1`, the T/C by setting is: (dose: 8.0 mg/kg/injection, schedule: Q01DX007 (ip), vehicle: carboxymethylcellulose (CMC)) 87 % of control; (dose: 16.0 mg/kg/injection, schedule: Q01DX007 (ip), vehicle: carboxymethylcellulose (CMC)) 106 % of control; (dose: 31.0 mg/kg/injection, schedule: Q01DX007 (ip), vehicle: carboxymethylcellulose (CMC)) 62 % of control.
Take `CCOC(=O)C(CO)NC(=O)C1(NC(C)=O)CCCC1` (stereo not given) (Ac-[Ac5c]-[ξS]-OEt): the T/C was 97 % of control (dose: 66.0 mg/kg/injection, schedule: Q01DX007 (ip), vehicle: water); 94 % of control (dose: 100.0 mg/kg/injection, schedule: Q01DX007 (ip), vehicle: water); 83 % of control (dose: 150.0 mg/kg/injection, schedule: Q01DX007 (ip), vehicle: water); 74 % of control (dose: 225.0 mg/kg/injection, schedule: Q01DX007 (ip), vehicle: water).
As for `O=C(O)C(O)C(F)(F)F` (stereo not given), the T/C was 111 % of control (dose: 15.5 mg/kg/injection, schedule: Q#A X014 (ip), vehicle: saline); 90 % of control (dose: 62.5 mg/kg/injection, schedule: Q#A X014 (ip), vehicle: saline); 123 % of control (dose: 125.0 mg/kg/injection, schedule: Q#A X014 (ip), vehicle: saline).
As for `S=P(N1CCCCCC1)(N1CC1)N1CC1`, the T/C is, setting by setting: (dose: 6.0 mg/kg/injection, schedule: Q01DX007 (ip), vehicle: carboxymethylcellulose (CMC)) 90 % of control; (dose: 6.5 mg/kg/injection, schedule: Q#A X014 (ip), vehicle: methylcellulose (MC)) 52 % of control; (dose: 9.0 mg/kg/injection, schedule: Q01DX007 (ip), vehicle: carboxymethylcellulose (CMC)) 60 % of control; (dose: 10.0 mg/kg/injection, schedule: Q#A X014 (ip), vehicle: methylcellulose (MC)) 60 % of control; (dose: 13.0 mg/kg/injection, schedule: Q01DX007 (ip), vehicle: carboxymethylcellulose (CMC)) 74 % of control; (dose: 15.0 mg/kg/injection, schedule: Q#A X014 (ip), vehicle: methylcellulose (MC)) 53 % of control. Further, the T/C reads like this: under setting [1], 62 % of control; (dose: 22.5 mg/kg/injection, schedule: Q#A X014 (ip), vehicle: methylcellulose (MC)) 23 % of control; (dose: 29.0 mg/kg/injection, schedule: Q01DX007 (ip), vehicle: carboxymethylcellulose (CMC)) 89 % of control; (dose: 45.0 mg/kg/injection, schedule: Q01DX007 (ip), vehicle: carboxymethylcellulose (CMC)) 57 % of control; (dose: 45.0 mg/kg/injection, schedule: Q01DX007 (ip), vehicle: saline) 25 % of control; (dose: 67.0 mg/kg/injection, schedule: Q01DX007 (ip), vehicle: carboxymethylcellulose (CMC)) 38 % of control. Besides, the T/C (dose: 90.0 mg/kg/injection, schedule: Q01DX007 (ip), vehicle: saline) was 12 % of control.
Regarding `CCCCCCCCCCCCOP(N)(=O)OCCCCCCCCCCCC`, the T/C is 73 % of control under setting [1]; 86 % of control (dose: 55.0 mg/kg/injection, schedule: Q01DX007 (ip), vehicle: carboxymethylcellulose (CMC)); 49 % of control (dose: 55.5 mg/kg/injection, schedule: Q01DX007 (ip), vehicle: carboxymethylcellulose (CMC)); 103 % of control (dose: 80.0 mg/kg/injection, schedule: Q01DX007 (ip), vehicle: carboxymethylcellulose (CMC)); 71 % of control (dose: 83.0 mg/kg/injection, schedule: Q01DX007 (ip), vehicle: carboxymethylcellulose (CMC)); 54 % of control (dose: 83.3 mg/kg/injection, schedule: Q01DX007 (ip), vehicle: carboxymethylcellulose (CMC)). Also, the T/C (dose: 120.0 mg/kg/injection, schedule: Q01DX007 (ip), vehicle: carboxymethylcellulose (CMC)) is 54 % of control; the T/C (dose: 125.0 mg/kg/injection, schedule: Q01DX007 (ip), vehicle: carboxymethylcellulose (CMC)) is 42 % of control; the T/C (dose: 187.5 mg/kg/injection, schedule: Q01DX007 (ip), vehicle: carboxymethylcellulose (CMC)) is 22 % of control.
